# According to patent US5051419A, “Prevention or elimination of mycoplasma contamination of animal or plant cell cultures” (Dainippon Pharmaceutical Co., Ltd., priority 1988, dated 1991):
# What was measured:
# mycoplasma [1] = test: Anti-mycoplasmal activity (MIC), agar-dilution method, all species of Table 1 together; type: cell-based; settings: in words
# Description: The minimum growth inhibitory concentrations (MIC; μg/ml) of the test chemicals were measured by the agar-dilution method.
# (1) Preparation of a mycoplasma suspension for inoculation
# A stored frozen suspension of mycoplasma (0.2 to 0.3 ml) was inoculated in 2 to 3 ml of a preculture medium to be described later. It was serially diluted tenfold until the dilution ratio reached 10,000 times. These diluted solutions were cultivated at 37° C. for 2 to 7 days. A culture having the highest dilution ratio was selected from those cultures in which a color change of the media was noted as a result of mycoplasma growth. It was diluted to 100 times with the preculture medium to prepare a mycoplasma suspension for inoculation.
# (2) Preparation of agar plates containing the test chemicals
# A 1,000 μg/ml aqueous solution of each test chemical was prepared (a difficultly-soluble chemical was dissolved by adding an equimolar amount of sodium hydroxide; the same applies hereinafter). The solution was used as a base solution and its twofold serial dilutions were prepared. The diluted solutions were pipetted on plastic petri dishes each in an amount of 1 ml. […]
# [2] = Cytotoxicity on FL cells (cell proliferation inhibition); type: cell-based, human; settings: human, fl human amnion cells; ratio of FL cell IC50 to MIC for mycoplasmas
# Description: Whether test chemicals would inhibit growth of cells was examined.
# A 1,000 μg/ml aqueous solution of each of the test chemicals was serially diluted twofold with Eagle's minimum essential medium.
# FL human-amnion cells (2×10^4 cells) were suspended in 3.6 ml of 10% FBS-MEM medium, put in petri dishes (diameter 60 mm) for tissue culture, and cultivated at 37° C. in 5% CO2 humidified atmosphere for 48 hours. The test chemical solution prepared as above was added in an amount of 0.4 ml to each of the petri dishes in predetermined concentrations, and the cells were cultivated for 3 days. After the cultivation, the medium was removed, and the remainder was washed once with Dulbecco's phosphate buffer (pH 7.4). The cells were peeled off by adding 0.2 ml of a 2.5% trypsin-0.002% EDTA mixed solution (1:9) and properly diluted with 10% FBS-MEM medium. Then, the number of the cells was counted by an Erma hemocytometer.
# The cell proliferation rate was calculated by following formula [formula]
# mycoplasma [3] = settings: in words, background; cited from earlier work
# mycoplasma [4] = test: Activity of eliminating spontaneously contaminated mycoplasmas, Test Example 4 as a whole; type: cell-based
# Description: The activity of test compound to eliminate mycoplasma contamination was tested as in Test Example 3 on spontaneously contaminated human lung carcinoma cells [I] and human melanoma cells [II].
# The period during which the cultivation was continued in the presence of the test chemicals was 7 days, and the mycoplasma species which infected the cells were unknown.
# [5] = test system: chromosomes of animals or plants; test: Deleterious effects on chromosomes; settings: in words
SMILES,anti-mycoplasmal activity (MIC) compared with control compounds (mycoplasma [1]),selectivity ratio at 72 h [2],minimum growth inhibitory concentration (MIC) for mycoplasma (mycoplasma [3]),mode of action on mycoplasma (mycoplasma [3]),"minimal effective concentration (mycoplasma [4]; Mycoplasma, 168 h, spontaneously contaminated cells [I] and [II])",mycoplasma eliminating concentration relative to control compound 1 (mycoplasma [4]; fraction of that of control compound 1),mycoplasma eliminating concentration relative to control compound 2 (ciprofloxacin) (mycoplasma [4]; fraction of that of control compound 2),deleterious effects on chromosomes [5]
CC1CN(c2c(F)c(N)c3c(=O)c(C(=O)O)cn(C4CC4)c3c2F)CCN1 (stereo not shown) [Compound 1],better than those of control compounds 2 to 4,66 to 528,,,,,,
"CN(C)c1ccc(O)c2c1C[C@H]1C[C@H]3[C@H](N(C)C)C(O)=C(C(N)=O)C(=O)[C@@]3(O)C(O)=C1C2=O [Compound 3, minocycline]",,,low,only act bacteriostatically and not mycoplasmacidally,,,,
"NCC1CN(c2c(F)c(N)c3c(=O)c(C(=O)O)cn(C4CC4)c3c2F)CCO1 (stereo not shown) [Compound A, 5-amino-7-(2-aminomethylmorpholino)-1-cyclopropyl-6,8-difluoro-1,4-dihydro-4-oxoquinoline-3-carboxylic acid]",more potent than those of control compounds 1 to 4,180 to 1440,,,0.2 µg/mL,1/2,1/32,excellent
